Six compounds from patent publication US11530222B2, “Substituted pyrrolopyrimidine and pyrazolopyrimidine as Bruton's tyrosine kinase (BTK) degraders” (ACCUTAR BIOTECHNOLOGY INC., priority 2021, dated 2022) can be followed below.

What all share (assay type): cell-based
One experiment has as its system REC-1 cells. The experiment in a line: Growth inhibitory activity in BTK-dependent REC-1 cell line (CellTiter-Glo). Particulars: Homo sapiens, Rec1, 144 h, 6 days after administration, read-out: REC1 Cellular Grwoth Inhibition IC50. On the procedure:
(§1) REC-1 (ATCC) and REC-1 BTK^C481S cells were plated in 96-well plates at 8,000 cells/well in 90 ul of RPMI growth medium containing 10% heat-inactivated FBS and 1× Penicillin Streptomycin, and then incubated at 37° C. overnight. The following day, the test compound was administered to the cells by using 10× compound stock solution prepared in growth medium at various concentrations. After administration of the compound, cells were then incubated at 37° C. for 6 days. Before CellTiter-Glo assay, the plates were equilibrated at room temperature for approximately 10 minutes. 100 ul of CellTiter-Glo® Reagent (Promega) was added to each well. The plates were then incubated at room temperature for 10 minutes and luminescence was recorded by EnSpire plate reader (PerkinElmer).
(§2) The GI50 values (i.e., the concentration of test compound at which 50% of cell growth are inhibited) were calculated. A designation of “A” corresponds to a […] value less than 20 nM. A designation of “B” corresponds to a […] value greater than or equal to 20 nM and less than 200 nM. A designation of “C” corresponds to a […] value greater than or equal to 200 nM.

A further experiment relates to REC-1 BTK^C481S cells. The experiment in a line: Growth inhibitory activity in REC-1 BTK^C481S cell line (CellTiter-Glo). Particulars: Homo sapiens, Rec1, 144 h, 6 days after administration, read-out: REC1 BTK^C481S Cellular Grwoth Inhibition IC50. On the procedure:
The BTK gene in REC-1 cell line (ATCC) was edited by the CRISPR-Cas9 technology to create a C to S point mutation at residue 481 of BTK protein. For gene editing, first, gRNA complex was prepared with Alt-R CRISPR-Cas9 tracrRNA and crRNA BTK^C481S (5′-[…]-3′) (IDT-Integrated DNA Technologies), and then BTK^C481S ribonucleoprotein (RNP) complex was prepared with gRNA complex and Alt-R S.p. Cas9 Nuclease V3 (IDT-Integrated DNA Technologies). Next, 1×10^5 REC-1 cells were electroporated with BTK^C481S RNP complex, Alt-R Cas9 Electroporation Enhancer and BTKC481S Ultramer DNA Oligo (5′-[…] […]-3′) (IDT-Integrated DNA Technologies) using Neon Transfection System (Thermo Fisher) under the condition of 1400 V, 10 ms, 3 pulses. Cells were then plated in a 96-well plate for 10 days and selected with 10 nM Ibrutinib for 5 passages. C481S mutation of BTK was further validated by Sanger Sequencing using gDNA extracted from these cells.
as §1, §2
In general terms: Cellular ATP, detected with luciferase, serves as a proxy for viable cell number.

A further experiment addresses T1, BTK (Homo sapiens, UniProt Q06187).
T1 construct: BTK Degradative Activity of Exemplary Compounds of the Present Disclosure in a RAMOS Cell Line; host or cells: RAMOS
The experiment in a line: BTK degradative activity in a RAMOS cell line (Western blot). Particulars: 6 hours after administration, read-out: RAMOS BTK Degradation DC50. The gist of the method: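 Ramos cells in RPMI with 10% FBS were treated with compound in DMSO at various concentrations for 6 h at 37 °C. BTK was measured by Western blot against GAPDH with infrared fluorescent detection and band quantification. DC50 is the concentration at which 50% of BTK is degraded.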
(Immunoblotting shows a protein as a band on a membrane.)

T1 sequence (Q06187 whole entry): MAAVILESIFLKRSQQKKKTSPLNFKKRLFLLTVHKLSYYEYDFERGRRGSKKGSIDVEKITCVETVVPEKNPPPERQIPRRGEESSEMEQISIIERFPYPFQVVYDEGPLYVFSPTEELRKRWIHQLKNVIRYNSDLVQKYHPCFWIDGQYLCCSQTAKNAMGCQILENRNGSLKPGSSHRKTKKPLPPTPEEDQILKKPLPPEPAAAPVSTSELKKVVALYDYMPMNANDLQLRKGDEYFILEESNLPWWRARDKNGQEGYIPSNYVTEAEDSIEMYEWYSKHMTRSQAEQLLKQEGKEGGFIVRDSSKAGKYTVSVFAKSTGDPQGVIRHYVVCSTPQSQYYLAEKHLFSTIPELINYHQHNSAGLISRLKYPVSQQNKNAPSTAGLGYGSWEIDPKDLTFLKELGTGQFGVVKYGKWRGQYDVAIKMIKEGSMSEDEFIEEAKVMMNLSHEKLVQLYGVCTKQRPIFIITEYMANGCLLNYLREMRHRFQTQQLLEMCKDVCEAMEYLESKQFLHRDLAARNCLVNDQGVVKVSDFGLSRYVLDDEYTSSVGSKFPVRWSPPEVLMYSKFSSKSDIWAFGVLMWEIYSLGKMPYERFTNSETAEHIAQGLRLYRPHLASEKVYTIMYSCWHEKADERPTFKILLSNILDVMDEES

Broadly, the IC50 is the concentration needed to halve the response being measured. As for `COc1ccc(F)cc1C(=O)NCc1ccc(-c2nn(-c3ccc(N4CCC(CN5CCN(c6ccc7c(c6)CN([C@H]6CCC(=O)NC6=O)C7=O)CC5)CC4)nc3)c3ncnc(N)c23)cc1` [Compound 59, (S)—N-(4-(4-amino-1-(6-(4-((4-(2-(2,6-dioxopiperidin-3-yl)-1-oxoisoindolin-5-yl)piperazin-1-yl)methyl)piperidin-1-yl)pyridin-3-yl)-1H-pyrazolo[3,4-d]pyrimidin-3-yl)benzyl)-5-fluoro-2-methoxybenzamide], the IC50 in the experiment with REC-1 cells and with REC-1 BTK^C481S cells was less than 20 nM in each case.

What is called DC50 is the concentration giving 50% degradation. Take `COc1ccc(F)cc1C(=O)NCc1ccc(-c2nn(-c3ccc(N4CC[C@@H](CN5CCN(c6ccc7c(c6)CN([C@H]6CCC(=O)NC6=O)C7=O)CC5)C4)c(F)c3)c3ncnc(N)c23)cc1` [Compound 96, N-(4-(4-amino-1-(4-((S)-3-((4-(2-((S)-2,6-dioxopiperidin-3-yl)-1-oxoisoindolin-5-yl)piperazin-1-yl)methyl)pyrrolidin-1-yl)-3-fluorophenyl)-1H-pyrazolo[3,4-d]pyrimidin-3-yl)benzyl)-5-fluoro-2-methoxybenzamide]: the DC50 on BTK is less than 10 nM. The IC50 with REC-1 cells and with REC-1 BTK^C481S cells was less than 20 nM each time.

`COc1ccc(F)cc1C(=O)NCc1ccc(-c2nn(-c3ccc(N4CC(CN5CCN(c6ccc7c(c6)CN([C@H]6CCC(=O)NC6=O)C7=O)CC5)C4)nc3)c3ncnc(N)c23)cc1` [Compound 97, (S)—N-(4-(4-amino-1-(6-(3-((4-(2-(2,6-dioxopiperidin-3-yl)-1-oxoisoindolin-5-yl)piperazin-1-yl)methyl)azetidin-1-yl)pyridin-3-yl)-1H-pyrazolo[3,4-d]pyrimidin-3-yl)benzyl)-5-fluoro-2-methoxybenzamide]: the DC50 on BTK was less than 10 nM. The IC50 in the experiment with REC-1 cells and in the experiment with REC-1 BTK^C481S cells was less than 20 nM throughout.

Turning to `COc1ccc(F)cc1C(=O)NCc1ccc(-c2nn(-c3ccc(N4CCC(CN5CCN(c6cc7c(cc6F)C(=O)N([C@H]6CCC(=O)NC6=O)C7)CC5)CC4)c(F)c3)c3ncnc(N)c23)cc1` [Compound 51, (S)—N-(4-(4-amino-1-(4-(4-((4-(2-(2,6-dioxopiperidin-3-yl)-6-fluoro-1-oxoisoindolin-5-yl)piperazin-1-yl)methyl)piperidin-1-yl)-3-fluorophenyl)-1H-pyrazolo[3,4-d]pyrimidin-3-yl)benzyl)-5-fluoro-2-methoxybenzamide], on BTK, the DC50 is less than 10 nM. In addition, the IC50 with REC-1 cells is less than 20 nM.

For the compound `COc1ccc(F)cc1C(=O)NCc1ccc(-c2nn(C3CCN(c4ccc(CN5CCN(c6ccc7c(c6)CN([C@H]6CCC(=O)NC6=O)C7=O)CC5)nc4)C3)c3ncnc(N)c23)cc1` (stereo partly drawn) [Compound 58, N-(4-(4-amino-1-(1-(6-((4-(2-((S)-2,6-dioxopiperidin-3-yl)-1-oxoisoindolin-5-yl)piperazin-1-yl)methyl)pyridin-3-yl)pyrrolidin-3-yl)-1H-pyrazolo[3,4-d]pyrimidin-3-yl)benzyl)-5-fluoro-2-methoxybenzamide], the DC50 on BTK was no less than 100 nM. The IC50 in the experiment on REC-1 cells is no less than 200 nM.

`COc1ccc(F)cc1C(=O)NCc1ccc(-c2nn(C3CCN(c4ccc(CN5CCN(c6ccc7c(c6)CN([C@H]6CCC(=O)NC6=O)C7=O)CC5)cc4)C3)c3ncnc(N)c23)cc1` (stereo partly drawn) [Compound 60, N-(4-(4-amino-1-(1-(4-((4-(2-((S)-2,6-dioxopiperidin-3-yl)-1-oxoisoindolin-5-yl)piperazin-1-yl)methyl)phenyl)pyrrolidin-3-yl)-1H-pyrazolo[3,4-d]pyrimidin-3-yl)benzyl)-5-fluoro-2-methoxybenzamide]: the DC50 on BTK is no less than 100 nM. Moreover, in the experiment with REC-1 cells, the IC50 lay within 20 to 200 nM.
